# Columns and labels:
# SW480 = test: Antiproliferative activity against human SW480 cells after 48 hrs by MTT assay; type: functional, cell-based; details: SW480, 48 h
# HCT-116 = test: Antiproliferative activity against human HCT116 cells after 48 hrs by MTT assay; type: functional, cell-based; details: HCT-116, 48 h
# BGC-823 = test: Antiproliferative activity against human BGC823 cells after 48 hrs by MTT assay; type: functional, cell-based; details: BGC-823, 48 h
# GES1 = test: Antiproliferative activity against human GES-1 cells after 48 hrs by MTT assay; type: cell-based; details: GES1, 48 h
# [1] = Antiproliferative activity against HHDPC cells after 48 hrs by MTT assay; type: cell-based; details: Homo sapiens
# H9c2 = test: Antiproliferative activity against rat H9c2 cells after 48 hrs by MTT assay; type: cell-based; details: H9c2, 48 h
IC50 (SW480) [µM],IC50 (HCT-116) [µM],IC50 (BGC-823) [µM],SMILES,IC50 (GES1) [µM],IC50 [1] [µM],IC50 (H9c2) [µM]
30.4,42.3,> 100,CC(C)(CCC[C@@]1(C)O[C@@H]2C[C@@H]3[C@@]4(C)CC[C@H](OC(=O)CCl)C(C)(C)[C@@H]4CC[C@@]3(C)[C@]3(C)CC[C@H]1[C@@H]23)OC(=O)CCl,125,100,281
0.118,5.34,0.622,C/C(=C\CCC(C)(C)O)[C@H]1CC[C@]2(C)[C@@H]1[C@H](OC(=O)CBr)C[C@@H]1[C@@]3(C)CC[C@H](O)C(C)(C)[C@@H]3CC[C@]12C,26.1,36.4,48.8
39.4,3.59,–,CC(C)=CC/C=C(\C)[C@H]1CC[C@]2(C)C1=CC[C@@H]1[C@@]3(C)CC[C@H](OC(=O)CBr)C(C)(C)[C@@H]3CC[C@]12C,77.6,90.6,131
18,58.1,95,CC(C)=CC/C=C(\C)[C@H]1CC[C@]2(C)[C@@H]1[C@H](Br)C[C@@H]1[C@@]3(C)CC[C@H](OC(=O)CBr)C(C)(C)[C@@H]3CC[C@]12C,121,157,250
15.2,3.86,15.6,CC1(C)CCC[C@](C)([C@H]2CC[C@]3(C)[C@@H]2[C@H](OC(=O)CBr)C[C@@H]2[C@@]4(C)CC[C@H](OC(=O)CBr)C(C)(C)[C@@H]4CC[C@]23C)O1,99.4,140,158
13.7,12.6,> 100,CC(C)=CC/C=C(\C)[C@H]1CC[C@]2(C)[C@@H]1[C@H](OC(=O)CCl)C[C@@H]1[C@@]3(C)CC[C@H](OC(=O)CCl)C(C)(C)[C@@H]3CC[C@]12C,100,89.5,180
> 100,> 100,> 100,CC1(C)CCC[C@](C)([C@H]2CC[C@]3(C)[C@@H]2[C@H](OC(=O)CCl)C[C@@H]2[C@@]4(C)CC[C@H](OC(=O)CCl)C(C)(C)[C@@H]4CC[C@]23C)O1,180,226,> 500
1.22,50.9,1.08,C/C(=C\CCC(C)(C)O)[C@H]1CC[C@]2(C)[C@@H]1[C@H](OC(=O)CBr)C[C@@H]1[C@@]3(C)CC[C@H](OC(=O)CBr)C(C)(C)[C@@H]3CC[C@]12C,35.1,42.1,36.6
31.4,7.14,82.1,C/C(=C\CCC(C)(C)OC(=O)CBr)[C@H]1CC[C@]2(C)C1=CC[C@@H]1[C@@]3(C)CC[C@H](OC(=O)CBr)C(C)(C)[C@@H]3CC[C@]12C,142,200,161
5.49,8.33,4.28,C/C(=C\CCC(C)(C)O)[C@H]1CC[C@]2(C)[C@@H]1[C@H](OC(=O)CCl)C[C@@H]1[C@@]3(C)CC[C@H](OC(=O)CCl)C(C)(C)[C@@H]3CC[C@]12C,110,61.9,86.2
14.2,–,14.7,CC1(C)CCC[C@@](C)([C@H]2CC[C@]3(C)[C@@H]2[C@H](O)C[C@@H]2[C@@]4(C)CC[C@H](OC(=O)CBr)C(C)(C)[C@@H]4CC[C@]23C)O1,115,118,120
15.8,42.3,17.1,CC1(C)CCC[C@@](C)([C@H]2CC[C@]3(C)[C@@H]2[C@H](O)C[C@@H]2[C@@]4(C)CC[C@H](OC(=O)CCl)C(C)(C)[C@@H]4CC[C@]23C)O1,107,120,121

SMILES,IC50 (SW480) [µM],IC50 (HCT-116) [µM],IC50 (BGC-823) [µM],IC50 (GES1) [µM],IC50 [1] [µM],IC50 (H9c2) [µM]
CC1(C)CCC[C@@](C)([C@H]2CC[C@]3(C)[C@@H]2[C@H](O)C[C@@H]2[C@@]4(C)CC[C@H](O)C(C)(C)[C@@H]4CC[C@]23C)O1,73.4,> 100,80.1,116,141,214

# From ChEMBL document CHEMBL4052803, “Synthesis and anti-tumor evaluation of panaxadiol halogen-derivatives” (Bioorg Med Chem Lett, 2017)
